Patent US20140005103A1, “SULFONAMIDE DERIVATIVES AND METHODS OF USE THEREOF FOR IMPROVING THE PHARMACOKINETICS OF A DRUG” (Merck, Sharp & Dohme Corp., priority 2012, published 2014)
pIC50: −log10 of the molar value.

Columns and labels:
CYP1A2 = biological target: T1, CYP1A2 (Homo sapiens, UniProt P05177); experiment: Cocktail CYP assay, phenacetin O-deethylation; assay type: in vitro ADME; details: human liver microsomes, 10 μM phenacetin; test concentrations up to 10 μM
T1 construct: 0.1 mg/mL protein human liver microsomes (BD Gentest); tissue BD Gentest; host or cells: human liver microsomes
T1 sequence (P05177 1-516): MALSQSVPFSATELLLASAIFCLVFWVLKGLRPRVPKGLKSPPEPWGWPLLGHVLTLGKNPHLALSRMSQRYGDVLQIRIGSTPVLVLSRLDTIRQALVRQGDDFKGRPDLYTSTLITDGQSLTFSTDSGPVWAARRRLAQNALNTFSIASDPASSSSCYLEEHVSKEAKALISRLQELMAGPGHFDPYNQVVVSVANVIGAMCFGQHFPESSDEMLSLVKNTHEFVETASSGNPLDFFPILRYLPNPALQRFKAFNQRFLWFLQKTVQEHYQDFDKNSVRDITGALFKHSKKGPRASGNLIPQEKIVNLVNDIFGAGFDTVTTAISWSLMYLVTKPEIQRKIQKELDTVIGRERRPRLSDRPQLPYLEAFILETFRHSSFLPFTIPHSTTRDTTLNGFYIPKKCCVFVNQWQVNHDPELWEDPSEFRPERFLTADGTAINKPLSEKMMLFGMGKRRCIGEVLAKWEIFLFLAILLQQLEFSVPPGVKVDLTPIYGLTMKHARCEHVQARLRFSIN
Description: (§1) Determination of IC50 in a Cocktail Assay for CYPs 1A2, 2C9, 2C19, 2D6 and 3A4
(§2) This assay was performed in a standard 96-well plate design. IC50 values were calculated from the percent inhibition observed for each test compound at 6 concentrations (for example, 0.0032, 0.016, 0.08, 0.4, 2 and 10 μM). The incubation substrate mix contains 10 μM phenacetin (1A2), 5 μM diclofenac (2C9), 30 μM mephenyloin (2C19), 5 μM dextromethorphan (2D6) and 2 μM midazolam (3A4), 0.1 mg/mL protein human liver microsomes (BD Gentest), 1 mM NAPDH, 3.3 mM MgCl2 and 100 mM potassium phosphate buffer (pH 7.4). The production of the metabolite of each probe substrate was determined after incubation for 10 min at 37° C. Quantitation of the metabolite peak area ratio against an internal standard (tolbutamide) was determined by LC/MS/MS analysis following acetonitrile treatment of the incubations.
(§3) Samples were analyzed in the MRM mode with a SCIEX API-4000 mass spectrometer (Applied Biosystems, Foster City, Calif.), with a Shimadzu LC-20 AD pump (Shimadzu corporation, Kyoto, JP) and a CTC PAL autosampler (Agilent Technologies, Switzerland). A Phenomenex, Luna, […], 100 A, 2.00×30 mm HPLC column was used for the separation. The mobile phases were: (A) 0.1% formic acid in water and (B) 0.1% formic acid in acetonitrile. The binary gradient was as follows.
(§4) The peak area ratio of the analyte to the internal standard was used to quantify the metabolite. The values of peak area ratios in the presence of test compound were compared to those of maximum or minimum controls and were expressed as % inhibition by interpolating between the maximum and minimum peak area ratios. Incubations with no inhibitor were defined as the maxima.
(§5) The following equation was used to calculate the % inhibition:
(§6) [1−[(X−Low control)/(High control−Low control)]]*100
(§7) For the IC50 calculation, SigmaPlot was used to plot the mean % inhibition versus the test compound concentrations and for non-linear regression analysis of the data. Depending on the range of data points defining the inhibition curve, the data may have been fit to the 4-parameter logistic equation.

CYP2C9 = biological target: T2, CYP2C9 (Homo sapiens, UniProt P11712); experiment: Cocktail CYP assay, diclofenac 4'-hydroxylation; assay type: in vitro ADME; details: human liver microsomes, 5 μM diclofenac; test concentrations up to 10 μM
T2 construct: 0.1 mg/mL protein human liver microsomes (BD Gentest); tissue BD Gentest; host or cells: human liver microsomes
Description: as §1, §2, §3, §4, §5, §6, §7

CYP2C19 = biological target: T3, CYP2C19 (Homo sapiens, UniProt P33261); experiment: Cocktail CYP assay, mephenytoin 4'-hydroxylation; assay type: in vitro ADME; details: human liver microsomes, 30 μM mephenytoin; test concentrations up to 10 μM
T3 construct: 0.1 mg/mL protein human liver microsomes (BD Gentest); tissue BD Gentest; host or cells: human liver microsomes
Description: as §1, §2, §3, §4, §5, §6, §7

human CYP11B2 = biological target: T4, human CYP11B2 (Homo sapiens, UniProt P19099); experiment: IC50 vs CYP11B2 by aldosterone synthesis in V79 cells; assay type: cell-based; details: V79 cells expressing human CYP11B2, 750 nM DOC, aldosterone HTRF; test concentrations 0.5-10000 nM
T4 construct: expressed in transfected cells
T4 sequence (P19099 25-503): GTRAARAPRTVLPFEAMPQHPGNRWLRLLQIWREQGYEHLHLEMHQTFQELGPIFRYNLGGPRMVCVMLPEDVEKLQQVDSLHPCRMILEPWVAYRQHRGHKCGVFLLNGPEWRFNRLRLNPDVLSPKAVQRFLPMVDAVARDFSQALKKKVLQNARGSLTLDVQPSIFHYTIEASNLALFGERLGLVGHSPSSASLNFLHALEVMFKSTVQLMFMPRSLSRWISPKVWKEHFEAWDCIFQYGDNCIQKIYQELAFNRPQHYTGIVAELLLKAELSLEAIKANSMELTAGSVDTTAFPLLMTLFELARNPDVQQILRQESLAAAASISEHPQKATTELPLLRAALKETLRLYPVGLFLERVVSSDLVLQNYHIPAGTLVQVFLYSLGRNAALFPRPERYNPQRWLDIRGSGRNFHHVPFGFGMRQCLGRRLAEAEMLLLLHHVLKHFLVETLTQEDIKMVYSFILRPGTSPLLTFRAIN
Description: Determination of IC50 vs CYP11B1/CYP11B2 by Measurement of Cortisol/Aldosterone Synthesis
This assay was performed in a standard 384-well plate design using cultured V79 cells stably expressing human CYP11B1 or human CYP11B2. Test compounds at 10 concentrations (for example, 10000, 3333.3, 1111.1, 370.4, 123.5, 41.2, 13.7, 4.6, 1.5 and 0.5 nM) were added in 384-well plate after the cell-seeding procedure. The incubation substrate contains 1500 nM RSS for CYP11B1 assay/750 nM DOC for CYP11B2 assay. The
Cortisol/Aldosterone production of cell culture supernatant was determined by Cortisol/Aldosterone HTRF kit after for about 15 hours incubation at RT (protect from light). IC50 values were calculated from the percent inhibition observed for each test compound at 10 concentrations.
The assay plate was read using Envision (Perkin Elmer, Waltham, Mass.) at 665 nm and 590 nm (using Filter Barcode of 217#, 205#; Mirror Barcode of 446#).
Data are analyzed using Assay Data Analyzer. All ratio data (665 nm/590 nm) are back calculated according to the standard curve, resulting in Cortisol/Aldosterone concentrations. IC50 values are reported as the Inflection Point (IP) of a four parameter fit of the titration data.
as §5
% Activity=100×{1−(Sample_back calculated Cortisol/Aldosterone concentration−LC_back calculated Cortisol/Aldosterone concentration)/(HC_back calculated Cortisol/Aldosterone concentration−LC_back calculated Cortisol/Aldosterone concentration)}

T2 sequence (P11712 whole entry): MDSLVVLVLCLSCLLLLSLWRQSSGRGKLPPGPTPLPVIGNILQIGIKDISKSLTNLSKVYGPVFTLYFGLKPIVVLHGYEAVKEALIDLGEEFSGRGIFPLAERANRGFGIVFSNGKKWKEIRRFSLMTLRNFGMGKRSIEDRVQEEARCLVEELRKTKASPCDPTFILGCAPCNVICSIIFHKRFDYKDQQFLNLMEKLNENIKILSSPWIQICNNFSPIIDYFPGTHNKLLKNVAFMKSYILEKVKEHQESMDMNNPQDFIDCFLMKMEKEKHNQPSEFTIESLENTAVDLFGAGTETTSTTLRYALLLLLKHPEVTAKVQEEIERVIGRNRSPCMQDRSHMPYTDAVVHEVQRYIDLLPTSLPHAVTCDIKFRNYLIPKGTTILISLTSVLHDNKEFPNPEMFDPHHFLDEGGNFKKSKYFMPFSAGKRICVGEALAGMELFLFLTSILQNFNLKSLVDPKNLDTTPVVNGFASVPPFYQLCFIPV
T3 sequence (P33261 whole entry): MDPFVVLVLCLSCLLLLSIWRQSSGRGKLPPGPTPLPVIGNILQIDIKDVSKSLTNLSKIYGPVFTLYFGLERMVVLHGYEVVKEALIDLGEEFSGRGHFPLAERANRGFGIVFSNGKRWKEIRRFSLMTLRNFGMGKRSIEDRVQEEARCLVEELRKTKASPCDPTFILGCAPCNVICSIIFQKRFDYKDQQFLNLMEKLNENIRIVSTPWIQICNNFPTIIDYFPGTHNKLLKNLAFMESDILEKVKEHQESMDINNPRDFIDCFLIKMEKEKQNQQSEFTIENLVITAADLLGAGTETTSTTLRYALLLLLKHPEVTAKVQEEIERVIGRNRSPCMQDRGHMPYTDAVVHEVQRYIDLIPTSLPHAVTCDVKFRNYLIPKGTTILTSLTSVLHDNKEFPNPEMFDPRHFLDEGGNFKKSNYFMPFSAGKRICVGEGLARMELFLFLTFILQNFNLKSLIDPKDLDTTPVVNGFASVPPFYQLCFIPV

Row | pIC50 (CYP1A2) | pIC50 (CYP2C9) | pIC50 (CYP2C19) | pIC50 (human CYP11B2) | SMILES
1 | < 5.00 | < 5.00 | < 5.00 | < 5.00 | C[C@H](c1ccc(F)cc1)n1cnnc1CN1CCN(S(=O)(=O)c2cnc(N3CCN4C[C@H](O)C[C@H]4C3)s2)CC1 [Compound 42]
2 | 5.66 | 5.61 | 5.65 | 5.03 | C[C@H](c1ccc(F)cc1)n1cncc1CN1CCN(S(=O)(=O)c2cnc(NCC(F)CN)s2)CC1 (stereo partly drawn) [Compound 17]
3 | < 5.00 | 5.46 | < 5.00 | 5.40 | C[C@H](c1ccc(F)cc1)n1cncc1CN1CCN(S(=O)(=O)c2cnc(N3CCC(S(C)(=O)=O)C3)s2)CC1 (stereo partly drawn) [Compound 8]
4 | < 5.00 | 5.83 | < 5.00 | < 5.00 | C[C@H](c1ccc(F)cc1)n1cncc1CN1CCN(S(=O)(=O)c2cnc(N3CCC4(CC3)CNC(=O)N4)s2)CC1 [Compound 3]
5 | 5.06 | 5.24 | 5.64 | 5.87 | CC1CN2C[C@H](O)C[C@H]2CN1c1ncc(S(=O)(=O)N2CCN(Cc3cncn3[C@H](C)c3ccc(F)cc3)CC2)s1 (single isomer, unassigned) [Compound 22]
6 | < 5.00 | 5.35 | 5.41 | 5.32 | C[C@H](c1ccc(F)cc1)n1cncc1CN1CCN(S(=O)(=O)c2cnc(N3CCN4C[C@H](O)C[C@H]4C3)s2)CC1 [Compound 5]
7 | < 5.00 | 5.57 | < 5.00 | < 5.00 | C[C@H](c1ccc(F)cc1)n1cncc1CN1CCN(S(=O)(=O)c2cnc(N3CCN4C[C@@H](CN)C[C@H]4C3)s2)CC1 [Compound 10]
8 | < 5.00 | 5.71 | < 5.00 | 5.41 | C[C@H](c1ccc(F)cc1)n1cncc1CN1CCN(S(=O)(=O)c2cnc(N3CCN4C[C@H](O)C[C@@H]4C3)s2)CC1 [Compound 6]
9 | < 5.00 | 5.18 | 5.43 | 5.33 | C[C@H](c1ccc(F)cc1)n1cncc1CN1CCN(S(=O)(=O)c2ccc(N3CCNCC3)cn2)CC1 [Compound 28]
